Measurements: ChEMBL document CHEMBL4507295 (2021)

Assays:
[1] = molecular target: Beta-1 adrenergic receptor (Homo sapiens) (UniProt P08588); settings: Compound concentration 10.0 uM
[2] = molecular target: Insulin receptor (Homo sapiens) (UniProt P06213); test: Protein Tyrosine Kinase, Insulin Receptor Eurofins-Panlabs enzyme assay; set-up: substrate with concentration 10 µg/mL […], incubation time 60 min, incubation temperature 25 °C; settings: Compound concentration 10.0 uM
[3] = molecular target: Polyunsaturated fatty acid 5-lipoxygenase (Homo sapiens) (UniProt P09917); test: Lipoxygenase 5-LO Eurofins-Panlabs enzyme assay; settings: Compound concentration 10.0 uM
Homo sapiens = species on record: Homo sapiens; test: Estrogen ERbeta Eurofins-Panlabs radioligand binding assay; settings: Compound concentration 10.0 uM
[4] = molecular target: Somatostatin receptor type 5 (Homo sapiens) (UniProt P35346); test: Somatostatin sst5 Eurofins-Panlabs radioligand binding assay; settings: Compound concentration 10.0 uM
[5] = molecular target: Peroxisome proliferator-activated receptor gamma (Homo sapiens) (UniProt P37231); test: PPARgamma Eurofins-Panlabs radioligand binding assay; set-up: ligand concentration 5 nM, non-specific ligand with concentration 0.5 µM L-797773, incubation time 18 h, incubation temperature 15 °C; settings: Compound concentration 10.0 uM
[6] = molecular target: Sodium-dependent dopamine transporter (Homo sapiens) (UniProt Q01959); settings: Compound concentration 10.0 uM
[7] = molecular target: Cannabinoid receptor 2 (Homo sapiens) (UniProt P34972); settings: Compound concentration 10.0 uM
[8] = molecular target: Somatostatin receptor type 1 (Homo sapiens) (UniProt P30872); test: Somatostatin sst1 Eurofins-Panlabs radioligand binding assay; set-up: ligand concentration 0.1 nM; settings: Compound concentration 10.0 uM
[9] = molecular target: High affinity choline transporter 1 (Homo sapiens) (UniProt Q9GZV3); test: Transporter, Choline Eurofins-Panlabs radioligand binding assay; set-up: ligand concentration 0.75 nM; settings: Rattus norvegicus; Compound concentration 10.0 uM
[10] = molecular target: Melanocortin receptor 3 (Homo sapiens) (UniProt P41968); test: Inhibition of Melanocortin MC3 at 10 µM in the Eurofins-Panlabs radioligand binding assay (Eurofins_assay_251300); set-up: ligand concentration 0.035 nM; settings: Compound concentration 10.0 uM
Bos taurus = species on record: Bos taurus; test: Phosphodiesterase PDE6 Eurofins-Panlabs enzyme assay; set-up: substrate with concentration [3H] cGMP + cGMP, incubation time 20 min, incubation temperature 25 °C; settings: Compound concentration 100.0 uM
[11] = molecular target: Glutamate receptor ionotropic, kainate (Rattus norvegicus) (UniProt P22756+Q01812+P42260+P42264+Q63273); test: Inhibition of Glutamate, Kainate at 10 µM in the Eurofins-Panlabs radioligand binding assay (Eurofins_assay_232700); settings: Compound concentration 10.0 uM
Rattus norvegicus [12] = species on record: Rattus norvegicus; test: Inhibition of Glutamate, NMDA, Phencyclidine at 10 µM in the Eurofins-Panlabs radioligand binding assay (Eurofins_assay_233000); assay type: protein-complex assay; settings: Compound concentration 10.0 uM
[13] = molecular target: B1 bradykinin receptor (Homo sapiens) (UniProt P46663); test: Bradykinin B1 Eurofins-Panlabs radioligand binding assay; settings: Compound concentration 10.0 uM
[14] = molecular target: T1, 5-hydroxytryptamine receptor 3A (Homo sapiens) (UniProt P46098); test: Inhibition of Serotonin (5-Hydroxytryptamine) 5-HT3 at 10 µM in the Eurofins-Panlabs radioligand binding assay (Eurofins_assay_271910); set-up: ligand concentration 0.69 nM; settings: Compound concentration 10.0 uM
T1 sequence (whole entry): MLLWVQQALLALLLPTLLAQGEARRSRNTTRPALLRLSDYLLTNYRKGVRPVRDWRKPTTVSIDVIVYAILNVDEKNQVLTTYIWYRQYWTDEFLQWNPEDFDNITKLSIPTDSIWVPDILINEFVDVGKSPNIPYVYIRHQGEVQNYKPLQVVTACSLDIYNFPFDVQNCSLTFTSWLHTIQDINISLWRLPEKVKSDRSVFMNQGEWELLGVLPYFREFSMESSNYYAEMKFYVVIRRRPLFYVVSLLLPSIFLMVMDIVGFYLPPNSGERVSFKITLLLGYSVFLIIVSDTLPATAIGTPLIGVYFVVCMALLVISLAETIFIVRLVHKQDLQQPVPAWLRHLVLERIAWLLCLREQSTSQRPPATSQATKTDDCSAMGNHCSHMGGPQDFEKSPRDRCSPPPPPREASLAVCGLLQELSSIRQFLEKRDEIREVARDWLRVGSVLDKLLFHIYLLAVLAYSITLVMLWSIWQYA

[15] = molecular target: GABA-A receptor; alpha-5/beta-3/gamma-2 (Homo sapiens) (UniProt P18507+P28472+P31644); test: GABA-alpha5beta3gamma2 Eurofins-Panlabs radioligand binding assay; assay type: protein-complex assay; set-up: ligand concentration 1 nM; settings: Compound concentration 10.0 uM
[16] = molecular target: GABA-A receptor; anion channel (Rattus norvegicus) (UniProt O09028+P15431+P18506+P18508+P19969+P20236+P23574+P23576+P28471+P28473+P30191+P62813+P63079+P63138+Q91ZM7+Q9ES14); settings: Compound concentration 10.0 uM
[17] = molecular target: Synaptic vesicular amine transporter (Homo sapiens) (UniProt Q05940); settings: Oryctolagus cuniculus; Compound concentration 10.0 uM
[18] = molecular target: T2, Muscarinic acetylcholine receptor M5 (Homo sapiens) (UniProt P08912); test: Inhibition of Muscarinic M5 at 10 µM in the Eurofins-Panlabs radioligand binding assay (Eurofins_assay_253010); set-up: ligand concentration 0.8 nM; settings: Compound concentration 10.0 uM
T2 sequence (whole entry): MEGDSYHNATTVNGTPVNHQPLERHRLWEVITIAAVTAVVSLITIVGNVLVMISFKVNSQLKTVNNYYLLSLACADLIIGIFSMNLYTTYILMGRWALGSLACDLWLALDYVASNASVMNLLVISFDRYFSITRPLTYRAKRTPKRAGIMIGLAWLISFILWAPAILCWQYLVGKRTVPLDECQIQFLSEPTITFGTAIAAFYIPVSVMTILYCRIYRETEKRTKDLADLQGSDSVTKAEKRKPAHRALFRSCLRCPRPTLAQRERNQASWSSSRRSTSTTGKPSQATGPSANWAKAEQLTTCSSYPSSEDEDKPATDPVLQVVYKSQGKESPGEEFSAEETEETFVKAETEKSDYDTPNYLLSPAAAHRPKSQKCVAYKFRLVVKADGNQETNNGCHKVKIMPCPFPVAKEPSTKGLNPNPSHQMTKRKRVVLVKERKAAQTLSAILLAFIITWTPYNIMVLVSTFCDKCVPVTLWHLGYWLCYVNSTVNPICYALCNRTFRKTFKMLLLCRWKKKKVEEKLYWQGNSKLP

[19] = molecular target: Bombesin receptor (Rattus norvegicus) (UniProt P52500+P24053+Q8K418); test: Bombesin, Non-Selective Eurofins-Panlabs radioligand binding assay; assay type: protein assay; settings: Compound concentration 10.0 uM
Rattus norvegicus [20] = species on record: Rattus norvegicus; test: Testosterone Eurofins-Panlabs radioligand binding assay; set-up: ligand concentration 1.5 nM; settings: Compound concentration 10.0 uM
[21] = molecular target: Neutrophil elastase (Homo sapiens) (UniProt P08246); test: Peptidase, ELA2 (Neutrophil Elastase 2) Eurofins-Panlabs enzyme assay; settings: Compound concentration 10.0 uM
[22] = molecular target: Galanin receptor type 1 (Homo sapiens) (UniProt P47211); test: Galanin GAL1 Eurofins-Panlabs radioligand binding assay; settings: Compound concentration 10.0 uM
[23] = molecular target: 5-hydroxytryptamine receptor 2B (Homo sapiens) (UniProt P41595); settings: Compound concentration 10.0 uM
[24] = molecular target: Muscarinic acetylcholine receptor M3 (Homo sapiens) (UniProt P20309); settings: Compound concentration 10.0 uM
[25] = molecular target: TGF-beta receptor type-1 (Homo sapiens) (UniProt P36897); settings: Compound concentration 1000.0 nM
[26] = molecular target: Delta-type opioid receptor (Homo sapiens) (UniProt P41143); settings: Compound concentration 10.0 uM
[27] = molecular target: 5-hydroxytryptamine receptor 6 (Homo sapiens) (UniProt P50406); settings: Compound concentration 10.0 uM

Sequence of B1 bradykinin receptor (Homo sapiens) (P46663 whole entry): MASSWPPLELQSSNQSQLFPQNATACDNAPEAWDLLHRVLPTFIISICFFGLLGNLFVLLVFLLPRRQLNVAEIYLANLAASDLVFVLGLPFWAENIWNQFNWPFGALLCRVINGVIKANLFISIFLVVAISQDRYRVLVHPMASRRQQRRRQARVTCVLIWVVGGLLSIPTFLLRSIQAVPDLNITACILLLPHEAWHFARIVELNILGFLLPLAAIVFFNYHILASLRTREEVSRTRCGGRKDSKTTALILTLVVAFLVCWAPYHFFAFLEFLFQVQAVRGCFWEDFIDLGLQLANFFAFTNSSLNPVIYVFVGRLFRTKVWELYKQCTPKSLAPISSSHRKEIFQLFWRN
Sequence of Cannabinoid receptor 2 (Homo sapiens) (P34972 whole entry): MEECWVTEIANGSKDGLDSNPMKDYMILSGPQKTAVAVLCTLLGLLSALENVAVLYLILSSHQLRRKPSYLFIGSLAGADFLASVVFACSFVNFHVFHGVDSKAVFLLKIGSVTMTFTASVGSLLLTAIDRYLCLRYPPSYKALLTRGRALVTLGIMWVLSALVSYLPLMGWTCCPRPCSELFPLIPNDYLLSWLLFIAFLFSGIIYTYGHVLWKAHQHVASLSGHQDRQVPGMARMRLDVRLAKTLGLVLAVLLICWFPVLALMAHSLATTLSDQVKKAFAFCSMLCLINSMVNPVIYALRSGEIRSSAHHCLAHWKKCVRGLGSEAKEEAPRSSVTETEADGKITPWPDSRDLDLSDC
Sequence of Polyunsaturated fatty acid 5-lipoxygenase (Homo sapiens) (P09917 whole entry): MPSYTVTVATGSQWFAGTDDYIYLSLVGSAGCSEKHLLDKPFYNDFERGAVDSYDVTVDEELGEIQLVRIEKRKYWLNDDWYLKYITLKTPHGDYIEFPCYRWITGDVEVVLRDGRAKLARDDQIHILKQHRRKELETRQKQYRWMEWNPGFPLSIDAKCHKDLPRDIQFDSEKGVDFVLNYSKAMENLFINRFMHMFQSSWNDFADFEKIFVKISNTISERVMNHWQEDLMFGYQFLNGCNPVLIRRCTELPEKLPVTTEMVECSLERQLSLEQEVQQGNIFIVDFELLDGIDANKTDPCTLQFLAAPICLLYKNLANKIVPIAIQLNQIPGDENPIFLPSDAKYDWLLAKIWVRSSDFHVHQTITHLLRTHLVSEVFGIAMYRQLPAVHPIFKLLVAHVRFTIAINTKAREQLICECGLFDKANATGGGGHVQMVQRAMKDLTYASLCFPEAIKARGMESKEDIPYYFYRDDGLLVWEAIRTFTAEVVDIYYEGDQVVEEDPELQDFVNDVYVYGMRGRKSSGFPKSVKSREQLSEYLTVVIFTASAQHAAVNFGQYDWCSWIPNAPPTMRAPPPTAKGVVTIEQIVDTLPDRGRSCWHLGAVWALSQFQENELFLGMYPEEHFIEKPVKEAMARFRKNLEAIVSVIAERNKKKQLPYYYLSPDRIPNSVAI
Sequence of Muscarinic acetylcholine receptor M3 (Homo sapiens) (P20309 whole entry, looked up): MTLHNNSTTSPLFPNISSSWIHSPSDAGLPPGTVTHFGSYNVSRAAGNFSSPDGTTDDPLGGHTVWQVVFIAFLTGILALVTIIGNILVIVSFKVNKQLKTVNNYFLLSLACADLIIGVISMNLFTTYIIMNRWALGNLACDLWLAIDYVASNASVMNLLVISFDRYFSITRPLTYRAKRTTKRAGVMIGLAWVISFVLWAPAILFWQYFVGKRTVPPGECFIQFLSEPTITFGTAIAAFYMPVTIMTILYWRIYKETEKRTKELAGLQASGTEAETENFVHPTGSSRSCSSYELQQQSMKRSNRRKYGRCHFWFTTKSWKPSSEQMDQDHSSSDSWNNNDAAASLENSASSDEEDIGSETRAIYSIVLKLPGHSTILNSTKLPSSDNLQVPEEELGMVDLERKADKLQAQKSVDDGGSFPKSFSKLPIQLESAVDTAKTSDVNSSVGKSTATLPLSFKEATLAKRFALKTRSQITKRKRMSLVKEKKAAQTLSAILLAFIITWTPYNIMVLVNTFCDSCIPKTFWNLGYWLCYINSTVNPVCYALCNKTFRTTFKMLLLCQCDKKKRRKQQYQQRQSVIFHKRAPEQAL
Sequence of TGF-beta receptor type-1 (Homo sapiens) (P36897 whole entry): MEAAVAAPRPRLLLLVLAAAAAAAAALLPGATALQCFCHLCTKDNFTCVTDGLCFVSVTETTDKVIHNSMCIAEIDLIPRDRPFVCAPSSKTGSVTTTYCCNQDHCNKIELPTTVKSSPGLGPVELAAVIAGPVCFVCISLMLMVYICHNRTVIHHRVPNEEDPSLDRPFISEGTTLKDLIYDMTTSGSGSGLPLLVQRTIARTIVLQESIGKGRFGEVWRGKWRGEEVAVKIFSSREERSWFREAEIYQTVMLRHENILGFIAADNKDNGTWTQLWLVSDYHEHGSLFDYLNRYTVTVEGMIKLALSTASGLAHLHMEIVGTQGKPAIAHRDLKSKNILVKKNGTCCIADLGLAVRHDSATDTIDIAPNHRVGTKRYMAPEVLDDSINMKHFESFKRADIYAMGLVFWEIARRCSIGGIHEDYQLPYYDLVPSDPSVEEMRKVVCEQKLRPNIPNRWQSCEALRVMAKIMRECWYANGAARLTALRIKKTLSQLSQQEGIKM
Sequence of High affinity choline transporter 1 (Homo sapiens) (Q9GZV3 whole entry): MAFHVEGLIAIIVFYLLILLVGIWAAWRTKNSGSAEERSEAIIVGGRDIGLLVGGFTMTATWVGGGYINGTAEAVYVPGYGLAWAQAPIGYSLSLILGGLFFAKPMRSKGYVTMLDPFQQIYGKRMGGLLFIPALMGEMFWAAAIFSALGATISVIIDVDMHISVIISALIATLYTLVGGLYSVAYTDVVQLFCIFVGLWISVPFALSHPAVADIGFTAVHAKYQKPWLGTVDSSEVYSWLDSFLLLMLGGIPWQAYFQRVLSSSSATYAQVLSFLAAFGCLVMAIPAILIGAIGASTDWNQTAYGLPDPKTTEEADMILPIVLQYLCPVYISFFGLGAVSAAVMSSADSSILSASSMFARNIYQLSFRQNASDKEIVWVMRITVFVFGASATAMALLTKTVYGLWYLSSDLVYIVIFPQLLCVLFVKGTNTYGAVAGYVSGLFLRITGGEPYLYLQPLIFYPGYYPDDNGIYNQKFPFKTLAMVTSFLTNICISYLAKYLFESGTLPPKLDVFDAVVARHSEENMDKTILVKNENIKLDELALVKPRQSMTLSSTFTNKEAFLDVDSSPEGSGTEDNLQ
Sequence of Somatostatin receptor type 5 (Homo sapiens) (P35346 whole entry): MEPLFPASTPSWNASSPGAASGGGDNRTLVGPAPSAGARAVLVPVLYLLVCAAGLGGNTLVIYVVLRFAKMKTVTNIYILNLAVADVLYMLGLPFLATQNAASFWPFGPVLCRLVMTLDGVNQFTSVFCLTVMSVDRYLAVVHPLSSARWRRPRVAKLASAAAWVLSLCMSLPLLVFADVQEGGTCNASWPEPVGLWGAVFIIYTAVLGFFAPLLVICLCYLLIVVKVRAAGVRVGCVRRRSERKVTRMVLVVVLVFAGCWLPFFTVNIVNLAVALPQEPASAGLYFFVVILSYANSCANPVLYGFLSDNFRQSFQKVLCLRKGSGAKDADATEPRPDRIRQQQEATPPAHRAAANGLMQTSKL
Sequence of Synaptic vesicular amine transporter (Homo sapiens) (Q05940 whole entry): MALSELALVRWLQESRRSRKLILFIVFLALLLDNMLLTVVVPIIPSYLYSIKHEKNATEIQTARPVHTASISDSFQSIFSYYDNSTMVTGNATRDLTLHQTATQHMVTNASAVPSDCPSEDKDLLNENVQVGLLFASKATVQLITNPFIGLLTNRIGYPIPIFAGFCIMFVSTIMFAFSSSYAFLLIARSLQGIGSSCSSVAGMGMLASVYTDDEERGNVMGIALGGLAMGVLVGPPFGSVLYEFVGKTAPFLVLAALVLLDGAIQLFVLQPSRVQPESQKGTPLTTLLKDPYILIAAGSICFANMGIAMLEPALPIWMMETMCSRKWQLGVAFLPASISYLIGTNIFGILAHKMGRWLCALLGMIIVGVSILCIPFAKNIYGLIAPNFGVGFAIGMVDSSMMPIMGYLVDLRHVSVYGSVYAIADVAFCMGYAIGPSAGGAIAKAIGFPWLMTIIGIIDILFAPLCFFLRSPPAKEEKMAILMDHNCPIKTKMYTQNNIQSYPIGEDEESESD
Sequence of Delta-type opioid receptor (Homo sapiens) (P41143 whole entry): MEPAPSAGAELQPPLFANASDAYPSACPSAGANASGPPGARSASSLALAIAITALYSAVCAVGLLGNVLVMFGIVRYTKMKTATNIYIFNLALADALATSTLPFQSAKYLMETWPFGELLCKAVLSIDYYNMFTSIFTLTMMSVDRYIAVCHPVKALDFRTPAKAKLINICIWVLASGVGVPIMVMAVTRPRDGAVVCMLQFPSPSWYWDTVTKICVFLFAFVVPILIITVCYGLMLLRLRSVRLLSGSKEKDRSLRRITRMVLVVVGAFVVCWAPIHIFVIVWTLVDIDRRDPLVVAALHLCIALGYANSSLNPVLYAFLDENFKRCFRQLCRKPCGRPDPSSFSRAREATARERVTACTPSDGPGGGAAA
Sequence of Peroxisome proliferator-activated receptor gamma (Homo sapiens) (P37231 whole entry): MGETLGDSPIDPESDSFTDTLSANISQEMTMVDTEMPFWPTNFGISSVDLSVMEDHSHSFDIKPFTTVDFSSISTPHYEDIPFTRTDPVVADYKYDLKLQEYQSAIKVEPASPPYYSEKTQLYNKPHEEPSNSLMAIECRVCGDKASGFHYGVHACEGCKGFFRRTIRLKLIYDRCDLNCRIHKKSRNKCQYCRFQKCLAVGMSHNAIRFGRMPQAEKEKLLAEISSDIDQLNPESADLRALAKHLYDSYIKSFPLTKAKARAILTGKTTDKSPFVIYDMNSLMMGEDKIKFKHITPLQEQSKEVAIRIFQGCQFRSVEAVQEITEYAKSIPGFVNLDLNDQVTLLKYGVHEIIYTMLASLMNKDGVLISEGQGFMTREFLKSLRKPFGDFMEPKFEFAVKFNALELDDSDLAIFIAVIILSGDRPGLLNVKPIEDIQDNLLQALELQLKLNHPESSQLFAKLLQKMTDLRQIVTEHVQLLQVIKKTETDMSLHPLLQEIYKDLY

N#CC1(c2ccccn2)CCN(Cc2cc(C(=O)O)c(=O)n3ccccc23)CC1 [MSD-M1PAM]
inactive: inhibition [1] 2% | inhibition [2] 1% | inhibition [3] -7% | inhibition (Homo sapiens) 8% | inhibition [4] -5% | inhibition [5] 10% | inhibition [6] 0% | inhibition [7] 0% | inhibition [8] -3% | inhibition [9] 29% | inhibition [10] 1% | inhibition (Bos taurus) 5% | inhibition [11] 7% | inhibition (Rattus norvegicus [12]) 11% | inhibition [13] -6% | inhibition [14] 17% | inhibition [15] 14% | inhibition [16] 18% | inhibition [17] 9% | inhibition [18] 11% | inhibition [19] 6% | inhibition (Rattus norvegicus [20]) -3% | inhibition [21] 9% | inhibition [22] 2% | inhibition [23] -2% | inhibition [24] 3%

N#CC1(c2ccccn2)CCN(Cc2cc(C(=O)N3CCCC3)c(=O)n3ccccc23)CC1
inactive: residual activity [25] 72% | inhibition [26] -0.84% | inhibition [27] 2.79%
